In patent US10328092B2, “Methods and compositions for treatment of drug addiction” (The Royal Institution for the Advancement of Learning / …, priority 2015, dated 2019):
Counter-ions that a name gives are not always drawn.

Experiments:
TNFα = TNFα mRNA / protein in ventral striatum (NAc) after in vivo treatment; set-up: species or system mouse; settings: L741,626 i.p. 3 mg/kg 15 min before daily cocaine, 5 days; adult mice
Description: To determine the effect of in vivo cocaine exposure on TNFα levels in the ventral striatum, TNFα mRNA and protein levels were measured in mice given intraperitoneal injections of saline or cocaine. […] To understand the impact of TNFα on synaptic function in the NAc, AMPA/NMDA ratios were measured at glutamatergic synapses on MSNs in the NAc core. Alteration in NAc core AMPA receptors are involved in the expression of behavioral sensitization to psychostimulants (Kalives, 2009).
Mice (8-10 weeks) were perfused and their brains submerged overnight in 4% PFA, cryoprotected with 30% sucrose, and cut in 30 μm thick coronal slices using a cryostat. The sections were incubated for 4 hours with blocking solution (2% normal goat serum, 3% BSA, 0.2% Triton X-100 in PBS) before incubation overnight at 4 C with primary antibodies in blocking solution (rabbit anti-Iba1 antibody [019-19741, Wako; 1:800; RRID: AB_2566825], chicken anti-GFAP antibody [AB5541, Millipore; 1:500; RRID: AB_177521], rabbit anti-NeuN [ab104225, Abcam, 1:400; RRID: AB_10711153], and rabbit anti-TNFα antibody [ab6671, Abcam, 1:100; RRID: AB_305641] or mouse anti-TNFα antibody [ab1793, Abcam, 1:100; RRID: AB_302615]). Sections were washed (2×15 min with PBST [0.05% Tween20] and 1×15 min with PBS at RT) and incubated for 2 hrs at room temperature in secondary antibodies (anti-rabbit, anti-chicken, or anti-mouse IgG-conjugated Alexa Fluorochrome [Invitrogen; 1:400]). Sections were washed and briefly (<30 seconds) incubated with Hoechst 33342 [H1399, Molecular Probes; 1:10,000] in PBS. The stained sections were imaged using an Olympus FluoView FV1000 confocal microscope with Fluoview imaging software (FV10-ASW). Images of the ventral striatum (nucleus accumbens core and shell) were acquired with a 40× or 60× objective and stacks of 25-30 optical sections (1 μm per section) of depth were Z-projected into a single window and analysed using ImageJ software (NIH).
The number of Iba1+ microglia were manually counted from 212×212 μm (60× objectives) or 317×317 μm (40× objectives) images. TNFα intensity was measured using the mean grey value of the entire image while Iba1 intensity measurements were obtained using a thresholded area to highlight only the microglia. Cell body area (μm^2) was measured based on Iba1 staining and using the freehand selection tool. Additional analysis of microglia morphology in saline and cocaine treated mice was done using IMARIS software (Bitplane). […] The following parameters were analyzed for 40 microglia per group: total process length (sum of length of all processes), total process volume, process diameter and number of branch points and terminals. […]
After 40 cycles, the Ct values were determined.

D1-MSNs in the NAc core [1] = assay: AMPA/NMDA ratio on D1-MSNs after in vivo treatment; set-up: species or system mouse; settings: L741,626 i.p. 3 mg/kg co-administered with daily cocaine over 5 days
Description: (§1) Repeated non-contingent administration of cocaine results in lower AMPA/NMDA ratios of excitatory inputs onto the NAc specifically on the D1-MSN subtype (Kim et al., 2011; Pascoli et al., 2012). To test whether the decrease in AMPA/NMDA ratios after repeated drug administration is due to the increase in TNFα expression, the AMPA/NMDA ratio was evaluated on D1 and D2 MSNs in the NAc core following cocaine or saline administration in WT and TNFα^−/− mice. […] This is consistent with the exocytosis of AMPARs observed with direct stimulation of D1Rs on MSNs (Mangiavacchi and Wolf, 2004). […] To test the hypothesis that potentiated D1-MSNs are more sensitive to TNFα, TNFα mice were treated with a single injection of cocaine and the effect of a low level of TNFα (10 ng/ml) on AMPA/NMDA ratios was evaluated. […] This treatment had no effect on D2-MSNs (FIG. 9B). To test whether cocaine-induced TNFα signaling would occlude further TNFα synaptic depression, wildtype animals were treated with cocaine for 5 days, and then treated striatel slices ex-vivo with TNFα (100 ng/ml). The AMPA/NMDA ratio on D1-MSNs (already reduced compared to saline treated animals; FIG. 5E) was not further reduced by treatment with TNFα (FIG. 5G).
Because depotentiation of MSNs reduced cocaine-induced behavioural sensitization (Pascoli et al., 2012), it was tested whether re-activation of microglia would depress NAc synapses and suppress sensitization. To do this, monophosphoryl lipid A (MPLA), a detoxified variant of LPS, was used (Casella and Mitchell, 2008). MPLA acts as a weak TLR4 agonist that is at least 100-fold less pyrogenic than LPS (Cluff, 2010) and is used in humans as an adjuvant for several vaccine formulations. […] It was verified that MPLA activates microglia in the striatum, by injecting 10 μg MPLA IP after 10 days withdrawal from cocaine. […] This is consistent with previous observations that MPLA acts as a microglia modulator (Michaud et al., 2013). […] It was next tested if MPLA treatment would depress synaptic strength in the NAc core. After 10 days of withdrawal, animals were injected with MPLA and evaluated 24 hours later for AMPA/NMDA ratios on D1-MSNs.
240 μm thick coronal slices containing the nucleus accumbens were prepared from brains of 8-9 week-old mice (with fluorescent D1-MSNs). After a 1 h recovery period, slices were placed in a submersion-type recording chamber and perfused (1.5-2 ml/min) at 30° C. with a bicarbonate-buffered artificial CSF saturated with 95% O2/5% CO2 and containing (in mM): 119 NaCl, 2.5 KCl, 1 NaH2PO4, 1.3 MgCl2, 2.5 CaCl2, 26.2 NaHCO3, 11 glucose, and 0.05 picrotoxin. Whole-cell voltage-clamp recordings from medium spiny neurons in the nucleus accumbens core were obtained under visual control using infrared-differential interference contrast microscopy. Whole-cell electrodes (2-4 MΩ) were filled with internal solution containing the following (in mM): 120 CsMeSO3, 15 CsCl, 8 NaCl, 0.2 EGTA, 10 HEPES, 2 Mg-ATP, 0.3 Na-GTP, 10 tetraethylammonium, and 5 QX-314 [5-N-(2,6-dimethylphenylcarbamoylmethyl)triethylammonium bromide] (308-310 mOsm). pH was adjusted to 7.3 with CsOH. Cells with series resistance above 25 MΩ or a 20% change over time were excluded. Synaptic currents were evoked using stainless-steel bipolar stimulating electrodes placed 100-150 μm rostral to the recorded neurons. EPSCs were acquired with an Axopatch 200B (Molecular Devices), filtered at 2 kHz, and digitized at 10 kHz. Acquisition and analysis was performed using pCLAMP 10.2 (Molecular Devices). To calculate AMPA/NMDA ratios, evoked synaptic responses were collected at −70 mV to measure AMPAR-mediated EPSCs and at +40 mV to measure NMDAR-mediated EPSCs. Typically, 20 responses were averaged to generate an average response. The peak AMPA response was used to calculate the AMPAR component and the amplitude at 40 ms post the AMPAR peak response was used to calculate the slower NMDA component at +40 mV to calculate the AMPA/NMDA ratio.

[2] = system: primary rat microglia cultures; assay: TNFα mRNA in primary rat microglia cultures; assay type: cell-based; settings: agonist 1 μm, 3 h
Description: For tissue, total RNA from the ventral striatum was extracted and isolated by RNAqueous-4PCR total RNA isolation kit (Ambion, AM1914), according to manufacturer's instructions. For microglia and astrocyte cultures, total RNA was isolated by RNeasy kit (Qiagen, 74136). For all sample types, 0.5 μg of total RNA was used for cDNA synthesis with Quantitect Reverse Transcription Kit (Qiagen, 205313), and quantitative RT-PCR was performed with Fast SYBR-Green Master Mix (Applied Biosystems) detected by StepOne Plus RealTime PCR system (Applied Biosystems). The sequences of qPCR primers used for mRNA quantification in this study were obtained from Integrated DNA Technologies, and are as follows: mouse TNFα forward, […] (SEQ ID NO: 1) [200 nM]; mouse TNFα reverse, […] (SEQ ID NO: 2) [200 nM]; mouse GAPDH forward, […] (SEQ ID NO: 3) [300 nM]; mouse GAPDH reverse, […] (SEQ ID NO: 4) [300 nM]; rat TNFα forward, […] (SEQ ID NO: 1) [600 nM]; rat TNFα reverse, […] (SEQ ID NO: 5) [600 nM]; rat cyclophilin forward, […] (SEQ ID NO: 6) [500 nM]; rat cyclophilin reverse, […] (SEQ ID NO: 7) [500 nM]. After 40 cycles, the Ct values were determined. To normalize the samples, ΔCt between TNFα and GADPH or cyclophilin Ct values was calculated. The x-fold difference in expression between the different treatments was then determined by subtraction of the ΔCt values and termed ΔΔCt. Finally, the total change was calculated as 2-ΔΔct and the relative amount compared with control samples was deducted.
Mixed microglia-astrocyte primary cultures were prepared from the striatum of postnatal rats (day 0), essentially as described (Beattie et al., 2002). Briefly, tissue was dissociated by […], and cells were seeded in glia media (MEM containing 5% FBS, 1.5% high sucrose MEM and 0.1% glutamax) on culture flasks (Corning) coated with poly-D lysine (Sigma) and placed in a humidified incubator at 37 C with 5% CO2. Neurons were removed by mechanical disruption and the medium was changed at day 1, and every 5-7 days after. […]

D2-MSNs in the NAc core = assay: AMPA/NMDA ratio, acute NAc slices treated ex-vivo with TNFα, D2-MSNs; assay type: cell-based, mouse; settings: for mean AMPA/NMDA ratio, D2 MSNs: NAc core
Description: (§2) It has been previously shown that TNFα drives internalization of AMPARs on MSNs in the dorsal striatum (Lewitus et al., 2014). As repeated cocaine administration primarily affects direct-pathway MSNs, specific subpopulations of MSNs in the NAc core were tested for their response to TNFα. Acute NAc slices were incubated with TNFα (10 ng/ml or 100 ng/ml) and whole-cell recording were made for Drd1a-td Tomato (D1) positive and negative (D2) MSNs. […] A low dose of TNFα (10 ng/ml) had no significant effect on either cell type.
as §1
. […] Synaptic currents were evoked using stainless-steel bipolar stimulating electrodes placed 100-150 μm rostral to the recorded neurons. […]

D1-MSNs in the NAc core [3] = assay: AMPA/NMDA ratio, acute NAc slices treated ex-vivo with TNFα, D1-MSNs; assay type: cell-based, mouse; settings: for mean AMPA/NMDA ratio, D1 MSNs: NAc core
Description: as §2, §1
. After a 1 h recovery period, slices were placed in a submersion-type recording chamber and perfused (1.5-2 ml/min) at 30° C. with a bicarbonate-buffered artificial CSF saturated with 95% O2/5% CO2 and containing (in mM): 119 NaCl, 2.5 KCl, 1 NaH2PO4, 1.3 MgCl2, 2.5 CaCl2, 26.2 NaHCO3, 11 glucose, and 0.05 picrotoxin. Whole-cell voltage-clamp recordings from medium spiny neurons in the nucleus accumbens core were obtained under visual control using infrared-differential interference contrast microscopy. Whole-cell electrodes (2-4 MΩ) were filled with internal solution containing the following (in mM): 120 CsMeSO3, 15 CsCl, 8 NaCl, 0.2 EGTA, 10 HEPES, 2 Mg-ATP, 0.3 Na-GTP, 10 tetraethylammonium, and 5 QX-314 [5-N-(2,6-dimethylphenylcarbamoylmethyl)triethylammonium bromide] (308-310 mOsm). pH was adjusted to 7.3 with CsOH. Cells with series resistance above 25 MΩ or a 20% change over time were excluded. Synaptic currents were evoked using stainless-steel bipolar stimulating electrodes placed 100-150 μm rostral to the recorded neurons. […]

## OC1(c2ccc(Cl)cc2)CCN(Cc2c[nH]c3ccccc23)CC1 [L741,626]
TNFα
  TNFα mRNA in ventral striatum tissue: significantly decreases
D1-MSNs in the NAc core [1]
  AMPA/NMDA ratio on D1-MSNs vs cocaine alone: increase

## Oc1cc2c(cc1O)C(c1ccccc1)CNCC2 (centres unmarked) [SKF-38393]
[2]
  change in TNFα mRNA in primary rat microglia cultures: had no effect

## CCCN[C@H]1CCc2nc(N)sc2C1 [pramipexole, pramipexole dihydrochloride]
[2]
  change in TNFα mRNA in primary rat microglia cultures: did not affect

## Tumor necrosis factor alpha [TNFα]
D2-MSNs in the NAc core; TNFα-KO mice, cocaine 24 hours prior, 10 ng/ml TNFα ex-vivo
  effect on AMPA/NMDA ratios in D2-MSNs: had no effect
D2-MSNs in the NAc core; slices treated with 10 ng/ml TNFα (printed D2(10 ug TNF))
  mean AMPA/NMDA ratio, D2 MSNs: 2.78±0.34
D2-MSNs in the NAc core; slices treated with 100 ng/ml TNFα (printed D2(100 ug TNF))
  mean AMPA/NMDA ratio, D2 MSNs: 2.02±0.18
D1-MSNs in the NAc core [3]; TNFα−/− mice treated 24 hours prior with cocaine, 10 ng/ml TNFα ex-vivo
  mean AMPA/NMDA ratio, D1-MSNs: 3.08±0.42
D1-MSNs in the NAc core [3]; slices treated with 10 ng/ml TNFα (printed D1(10 ug TNF))
  mean AMPA/NMDA ratio, D1 MSNs: 3.1±0.52
D1-MSNs in the NAc core [3]; slices treated with 100 ng/ml TNFα (printed D1(100 ug TNF))
  mean AMPA/NMDA ratio, D1 MSNs: 2.42±0.23
D1-MSNs in the NAc core [3]; wildtype mice after 5 daily cocaine injections, 100 ng/ml TNFα ex-vivo
  mean AMPA/NMDA ratio, D1-MSNs: 4.06±0.46
